The target in data set [1] is T1, BCRP (Homo sapiens, UniProt Q9UNQ0).
T1 construct: expressed in transfected cells; host or cells: HEK293
T1 sequence (Q9UNQ0 1-655): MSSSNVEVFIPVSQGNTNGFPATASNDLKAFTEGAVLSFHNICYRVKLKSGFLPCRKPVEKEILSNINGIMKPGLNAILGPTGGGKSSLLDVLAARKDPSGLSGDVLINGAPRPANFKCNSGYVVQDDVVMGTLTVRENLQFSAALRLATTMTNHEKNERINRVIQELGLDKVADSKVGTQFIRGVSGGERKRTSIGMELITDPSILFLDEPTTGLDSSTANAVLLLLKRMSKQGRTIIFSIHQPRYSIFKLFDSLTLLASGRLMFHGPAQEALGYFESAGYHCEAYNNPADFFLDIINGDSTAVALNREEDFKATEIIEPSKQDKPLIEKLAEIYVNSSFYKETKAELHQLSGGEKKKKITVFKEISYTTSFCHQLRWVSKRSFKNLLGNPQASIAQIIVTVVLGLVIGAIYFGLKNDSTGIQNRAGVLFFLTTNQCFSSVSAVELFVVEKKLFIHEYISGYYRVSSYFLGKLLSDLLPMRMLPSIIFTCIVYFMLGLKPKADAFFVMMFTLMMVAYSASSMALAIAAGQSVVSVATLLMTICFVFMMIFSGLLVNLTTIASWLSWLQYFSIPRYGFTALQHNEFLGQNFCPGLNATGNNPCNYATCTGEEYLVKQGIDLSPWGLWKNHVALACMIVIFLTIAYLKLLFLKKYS
The data set can be described thus: BCRP activity: Hoechst 33342 retention in HEK-BCRP cells. It is filed as cell-based. The conditions noted are these: for inhibition at 90 min, 100 μM: human. As to the method: For retention assay (used for BCRP activity), HEK-BCRP cells cultured in 48-well plates were first loaded at 37°C with transport assay (200 μL/well) containing 16.2 μM Hoechst 33342 for 30 min. After washing twice in PBS (200 μL/well/washing), cells were reincubated in Hoechst 33342-free transport assay medium (200 μL/well) at 37°C for 90 min in the absence or presence of pyrethroids or of the BCRP reference inhibitor fumitremorgin C used at 10 μM. Cells were next lysed in distilled water (155 μL/well) after washing twice in PBS (200 μL/well/washing). The cell lysate was finally used for determining cellular protein content and intracellular retention of Hoechst 33342 (by spectrofluorimetry: excitation and emission wavelengths were 355 and 460 nm, respectively), as described above.
The initial tested concentration of pyrethroids was 100 μM.

For data set [2], the target named is P-gp (Homo sapiens, UniProt P08183). As to the kind of experiment: P-gp activity: rhodamine 123 accumulation in MCF7R cells. The conditions noted are these: for inhibition at 100 μM: human, pH 7.4. As for the experimental part:
The effects of pyrethroids on activity of ABC and SLC transporters were determined through measuring cellular accumulation or retention of fluorescent or radiolabeled reference substrates for transporters, in the presence or absence of reference inhibitors, as previously described. The nature of cells and reference substrates and inhibitors used for transport assays are summarized in S3 Table.
For accumulation assays (performed for all transporters, excepted BCRP), transporter-expressing cells usually cultured in 48-well plates were first incubated at 37°C with reference substrates in the absence (control) or presence of pyrethroids or reference inhibitors, in a well-defined transport assay medium, consisting of 136 mM NaCl, 5.3 mM KCl, 1.1mM KH2PO4, 0.8 mM MgSO4, 1.8 mM CaCl2, 10 mM HEPES, 11 mM D-glucose and adjusted to pH = 7.4 (excepted for MATE transporter assays, for which pH was set to 8.4). The nature of substrates and reference inhibitors and the incubation times with substrates, that varied according to the transporter, were selected in agreement with previous studies and are indicated in S3 Table. The total incubation volume with substrates was 200 μL/well. After washing twice in phosphate-buffered saline (PBS) (200 μL/well/washing), cells were lysed in distilled water (155 μL/well). An aliquot of cell lysate (5 μL) was then taken for determining cellular protein content by the Bradford method. The rest of lysate (150 μL/well) was used for measuring intracellular accumulation of reference substrates by scintillation counting or spectrofluorimetry using a SpectraMax Gemini SX spectrofluorometer (Molecular Devices, Sunnyvale, CA, USA) (excitation and emission wavelengths were 485 and 535 nm, respectively, for rhodamine 123 and fluorescein, and 355 and 460 nm, respectively, for DAPI).
Intracellular concentrations of reference substrates were initially expressed as fluorescence arbitrary units (for fluorescent dye substrates) or as moles (for radiolabeled substrates) and normalized to cellular protein content, determined by the Bradford method. They were finally used for calculating percentage of transporter activity, according to the following equations [41, 45]: %ABCtransporter activity=([Substrateref inh]-[Substratepyrethroid])×100/([Substrateref inh]-[Substratecontrol]) (1) %SLC transporter activity=([Substratepyrethroid]-[Substratref inh])×100/([Substratecontrol]-[Substrateref inh]) (2) with [Substratepyrethroid] = cellular concentration of reference substrate in the presence of pyrethroid, [Substrateref inh] = cellular concentration of reference substrate in the presence of reference inhibitor and [Substratecontrol] = cellular concentration of reference substrate in control cells not exposed to pyrethroid or reference inhibitor.
The initial tested concentration of pyrethroids was 100 μM. […] Such concentrations were calculated using GraphPad Prism software (GraphPad Software, La Jolla, CA), through nonlinear regression based on the four parameter logistic function using the following equations: […]

Read-outs that look alike come from different tables or passages of the source.

Sequence of P-gp (P08183 whole entry): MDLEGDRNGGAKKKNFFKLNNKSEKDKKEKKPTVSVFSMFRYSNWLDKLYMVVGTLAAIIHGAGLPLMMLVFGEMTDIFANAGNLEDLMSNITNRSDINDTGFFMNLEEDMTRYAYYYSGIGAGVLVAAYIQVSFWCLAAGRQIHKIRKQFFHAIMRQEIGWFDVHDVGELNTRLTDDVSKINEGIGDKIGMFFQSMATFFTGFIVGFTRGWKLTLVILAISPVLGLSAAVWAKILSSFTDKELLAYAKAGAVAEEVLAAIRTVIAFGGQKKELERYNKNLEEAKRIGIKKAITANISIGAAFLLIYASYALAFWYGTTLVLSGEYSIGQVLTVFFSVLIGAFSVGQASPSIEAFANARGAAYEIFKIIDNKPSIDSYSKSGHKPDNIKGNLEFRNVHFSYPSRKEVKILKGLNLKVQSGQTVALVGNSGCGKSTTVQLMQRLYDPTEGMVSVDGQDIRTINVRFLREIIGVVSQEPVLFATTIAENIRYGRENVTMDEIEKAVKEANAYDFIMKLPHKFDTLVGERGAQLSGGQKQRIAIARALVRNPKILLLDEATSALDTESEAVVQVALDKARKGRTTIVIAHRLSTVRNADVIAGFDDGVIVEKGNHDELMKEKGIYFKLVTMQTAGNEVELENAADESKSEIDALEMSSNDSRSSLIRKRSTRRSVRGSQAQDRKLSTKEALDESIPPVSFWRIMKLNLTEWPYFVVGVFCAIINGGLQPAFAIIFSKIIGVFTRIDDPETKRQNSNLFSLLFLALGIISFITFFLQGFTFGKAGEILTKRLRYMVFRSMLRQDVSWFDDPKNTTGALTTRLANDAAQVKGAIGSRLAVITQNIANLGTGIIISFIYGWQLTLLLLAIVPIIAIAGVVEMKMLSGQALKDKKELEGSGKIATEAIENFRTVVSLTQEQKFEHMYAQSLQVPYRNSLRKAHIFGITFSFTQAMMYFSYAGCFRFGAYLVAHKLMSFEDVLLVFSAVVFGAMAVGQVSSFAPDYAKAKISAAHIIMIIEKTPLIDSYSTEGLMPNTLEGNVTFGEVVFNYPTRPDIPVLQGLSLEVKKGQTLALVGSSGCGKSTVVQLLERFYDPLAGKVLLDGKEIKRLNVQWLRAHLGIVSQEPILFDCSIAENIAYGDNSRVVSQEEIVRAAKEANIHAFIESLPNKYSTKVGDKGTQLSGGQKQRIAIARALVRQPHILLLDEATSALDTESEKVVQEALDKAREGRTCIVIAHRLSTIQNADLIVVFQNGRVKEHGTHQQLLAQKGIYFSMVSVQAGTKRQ

The IC50 is the concentration needed to halve the response being measured. High values mean a need for much substance, low ones inhibition by little substance. For orientation: inhibition means the change of the read-out against control, counted positive when it falls. `C=CCC1=C(C)C(OC(=O)C2C(C=C(C)C)C2(C)C)CC1=O` (stereo not drawn) [allethrin]: in data set [1], the IC50 was found to be 42.5 µM and the inhibition at 90 min, 100 μM is 83.9%. In data set [2], this compound returned a half-inhibitory concentration (IC50) of more than 100 µM and an inhibition at 100 μM of 32.7%.

Regarding `CC(C)=CC1C(C(=O)OCN2C(=O)C3=C(CCCC3)C2=O)C1(C)C` (stereo not drawn) [tetramethrin], in data set [1], the half-inhibitory concentration (IC50) worked out at 72.5 µM. The inhibition at 90 min, 100 μM in data set [1] (pyrethroid 100 μM, HEK-BCRP cells, Hoechst 33342, read-out: inhibition of BCRP activity) was found to be 67.1%. Further, in data set [2], the IC50 is more than 100 µM and the inhibition at 100 μM amounted to 24.5%. Further, in data set [2] (pyrethroid 100 μM), the “effect on P-gp activity” value is on record as “moderately inhibited”.

The record behind these values is paper PMC5242521 (PLoS ONE, 2017).
